# In patent US20120302748A1, “TREATMENT OR PROPHYLAXIS OF PROLIFERATIVE CONDITIONS” (THE UNIVERSITY COURT OF THE UNIVERSITY OF DUNDEE, priority 2009, published 2012):
# Like-named read-outs stand apart in the source and are kept apart here.
# Assays:
# UT-SCC-9 = test: cells; conditions: Homo sapiens, 72 h, read-out: cytotoxicity IC50 UT-SCC-9
# UT-SCC-8 = test: cells; conditions: Homo sapiens, 72 h, read-out: cytotoxicity IC50 UT-SCC-8
# UT-SCC-14 tumour cells = test: Cytotoxicity in primary HNSCC tumour cell line UT-SCC-14 (MTS assay); conditions: Homo sapiens, 72 h, read-out: cytotoxicity IC50 UT-SCC-14
# Description: A UT-SCC-14 tumour cell suspension at 2000 cells per well on a 96-well plate and if necessary add fresh media to give a total volume per well of 100 μl. The cells were allowed to attach for 4 h in an incubator. […] The final concentration of ethanol 0.2% was found not to effect the growth characteristics of the UT-SCC-14 cell line. The UT-SCC-14 cells were incubated with test compound for 72 h after which time all aspirated and replaced with 100 μl of fresh medium to compensate for the loss of medium due to evaporation. The cells were incubated with 20 μl of the MTS assay reagent for 1.5 h and the absorbance per well at 510 nm measured using a plate reader. The mean absorbance and standard deviation for each test compound concentration was calculated versus a series of controls including (a) cells plus medium, (b) cell plus medium containing ethanol 0.2%, (c) medium alone, and (d) medium containing ethanol 0.2% and a range of test compound concentrations from 0 to 100 μmol dm^−3.
# UT-SCC-10 = test: cells; conditions: Homo sapiens, 72 h, read-out: cytotoxicity IC50 UT-SCC-10
# CYP1B1 [1] = target: T1, CYP1B1 (Homo sapiens, UniProt Q16678); test: CYP1B1 substrate inhibition, P450-Glo Luciferin-CEE luminescent assay; conditions: human
# T1 sequence (Q16678 1-543): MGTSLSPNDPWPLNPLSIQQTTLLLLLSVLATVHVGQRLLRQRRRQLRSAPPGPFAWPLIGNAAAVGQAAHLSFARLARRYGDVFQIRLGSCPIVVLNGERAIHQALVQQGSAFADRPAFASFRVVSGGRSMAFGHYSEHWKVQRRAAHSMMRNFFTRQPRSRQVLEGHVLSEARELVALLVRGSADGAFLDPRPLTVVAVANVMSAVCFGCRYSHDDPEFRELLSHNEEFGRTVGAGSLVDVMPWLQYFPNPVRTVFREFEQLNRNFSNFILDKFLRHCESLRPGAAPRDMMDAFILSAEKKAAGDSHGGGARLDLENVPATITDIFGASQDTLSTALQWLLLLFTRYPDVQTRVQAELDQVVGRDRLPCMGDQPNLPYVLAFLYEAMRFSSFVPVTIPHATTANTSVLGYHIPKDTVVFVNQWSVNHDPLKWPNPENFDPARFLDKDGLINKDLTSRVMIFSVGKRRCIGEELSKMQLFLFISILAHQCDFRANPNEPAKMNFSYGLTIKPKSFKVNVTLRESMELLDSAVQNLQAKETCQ
# CHO/CYP1B1 cells [2] = test: cells; conditions: Cricetulus griseus
# CYP1B1 [3] = target: T1, CYP1B1; test: CYP1B1 substrate prediction model (Gaussian Kernel weighted k-NN); conditions: predicted versus actual
# [4] = system: UTSCC-14 primary human tumour xenograft; test: Anti-tumour activity in primary human tumour xenograft model; assay type: in vivo, nude mice; conditions: for Tumour growth delay at 28 days: 2 cycles daily for 5 days/2 days off
# Description: Primary UTSCC-14 cell lines 3×10^6 were implanted subcutaneously in the flank of nude mice. Mice were randomized to 10 animals per group when the tumour volume was 100 to 150 mm^3. SU046-04 was given intraperitoneally at 12, 25 and 50 mg/Kg in PBS versus versus vehicle alone for 2 cycles: daily for 5 days/2 days off. Tumour volume was measured every 4 days using calipers. […] Tumour growth delay at 28 days was 31% at 12 mg/Kg, 56% at 25 mg/Kg, and 90% at 50 mg/Kg with 4/10 complete responses.
# in vitro = conditions: Chinese hamster
# CHO/CYP1B1 cells [5] = system: CHO/CYP1B1 cells
# CYP1A1 [6] = test: in vitro; conditions: Chinese hamster
# [7] = target: T2, human supersomal CYP1B1 plus reductase (Homo sapiens, UniProt Q16678); test: CYP1B1 substrate inhibition, P450-Glo Luciferin-CEE luminescent assay; conditions: final concentration of 0.5 mmol dm^−3; triplicate, mean ± standard deviation
# T2 sequence (Q16678 1-543): T1 sequence (Q16678 1-543)
# CYP1A1 [8] = target: T3, CYP1A1 (Homo sapiens, UniProt P04798); conditions: inhibitor at 10 nmol dm^−3
# T3 sequence (P04798 1-512): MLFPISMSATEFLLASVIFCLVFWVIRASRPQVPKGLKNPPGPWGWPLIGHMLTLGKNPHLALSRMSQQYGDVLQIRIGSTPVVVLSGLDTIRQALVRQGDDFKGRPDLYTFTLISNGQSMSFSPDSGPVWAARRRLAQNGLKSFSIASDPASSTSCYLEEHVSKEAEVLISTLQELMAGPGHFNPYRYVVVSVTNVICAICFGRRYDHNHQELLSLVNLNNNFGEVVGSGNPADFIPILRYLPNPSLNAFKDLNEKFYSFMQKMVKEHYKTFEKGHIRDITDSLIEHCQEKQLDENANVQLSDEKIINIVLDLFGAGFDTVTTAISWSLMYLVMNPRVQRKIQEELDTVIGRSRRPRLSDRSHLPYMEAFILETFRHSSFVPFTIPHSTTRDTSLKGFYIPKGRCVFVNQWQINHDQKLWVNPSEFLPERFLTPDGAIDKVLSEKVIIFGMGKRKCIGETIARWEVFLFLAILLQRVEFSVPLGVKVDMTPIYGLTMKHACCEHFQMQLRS
# CYP1A1 [9] = target: T3, CYP1A1; conditions: inhibitor at 10 nmol dm^−3; remark: listed apart in the source
compound,measurement,setting,value
"Cc1cc(=O)oc2cc(OCc3c4ccccc4cc4ccccc34)ccc12 [SU06-02, 7-(anthracen-9-ylmethoxy)-4-methyl-2H-chromen-2-one]",melting point,,216 to 218 °C
CC[C@@]1(O)C(=O)OCc2c1cc1n(c2=O)Cc2cc3cc(OCc4cc5cc(OC)cc(OC)c5o4)ccc3nc2-1 [SU037-04],IC50,UT-SCC-9,220 ± 80 nM
same,IC50,UT-SCC-8,560 ± 40 nM
same,IC50,UT-SCC-14 tumour cells,120 ± 70 nM
same,IC50,UT-SCC-10,210 ± 40 nM
COc1cc(OC)c2oc(COP(=O)(NCCBr)NCCBr)cc2c1 [SU046-04],inhibition at 0.5 mmol dm^−3,CYP1B1 [1],96.45 ± 0.22%
same,IC50,"CHO/CYP1B1 cells [2]; 72 h, read-out: Cytotoxicity (IC50) CHO/CYP1B1 72 h",4 ± 2 nM
same,IC50,"CHO/CYP1B1 cells [2]; 96 h, read-out: Cytotoxicity (IC50) CHO/CYP1B1 96 h",3 ± 1 nM
same,% CYP1B1 substrate inhibition accuracy,CYP1B1 [3],96%
same,Tumour growth delay at 28 days,[4]; 12 mg/Kg intraperitoneally,31%
same,Tumour growth delay at 28 days,[4]; 25 mg/Kg intraperitoneally,56%
same,complete responses,[4]; 50 mg/Kg intraperitoneally,4/10
same,Tumour growth delay at 28 days,[4]; 50 mg/Kg intraperitoneally,90%
same,adverse effects / body weight loss,[4]; after highest exposure 250 mg/Kg,No observed adverse effects or significant body weight loss
same,inhibition of tumour growth versus vehicle,"[4]; all three treatment arms 12, 25 and 50 mg/Kg",significant inhibition of tumour growth
same,IC50,in vitro; Cytotoxicity (IC50) CHO 72 h,20300 ± 1200 nM
same,IC50,in vitro; Cytotoxicity (IC50) CHO 96 h,16200 ± 200 nM
same,IC50,in vitro; cytotoxicity IC50 in wild-type CHO cells,≥ 10000 nM
same,IC50 ratio 72 h (CHO / CHO/CYP1B1),CHO/CYP1B1 cells [5],5075
same,IC50,UT-SCC-14 tumour cells,20 ± 10 nM
same,IC50,CYP1A1 [6],20300 ± 2100 nM
O=P1(N(CCCl)CCCl)NCCCO1 (stereo not drawn) [cyclophosphamide],toxicity in the CHO cytotoxicity assay,CHO cells,non-toxic
"C[C@]12CC[C@@H]3c4ccc(O)cc4CC[C@H]3[C@@H]1CC[C@@H]2O [β-estradiol, reference compound]",% CYP1B1 substrate inhibition actual,[7],72.34 ± 0.45%
same,% CYP1B1 substrate inhibition accuracy,CYP1B1 [3],95%
tetramethoxystilbene,% CYP1B1 substrate inhibition accuracy,CYP1B1 [3],98%
same,Specific activity CHO/CYP1A1 ethoxyresorufin,CYP1A1 [8],26 ± 4 pmol resorufin or luciferin min^−1 mg protein^−1
same,Specific activity CHO/CYP1A1 Luciferin-CEE,CYP1A1 [9],20 ± 5 pmol resorufin or luciferin min^−1 mg protein^−1
